Laboratory results published in USRE44543E1, “Naphthalenic compounds as termite bait toxicants” (priority 2002, dated 2013).

Key:
C. formosanus = test: ARS bait matrix bioassay with NHA sodium salt, protocol of Example 1 (Example 2); format: in vivo, Coptotermes formosanus; details: concentrations greater than 500 and up to 1500 ppm; also effective
Procedure: (§1) For bait matrices with a final concentrations of NHA sodium salt of either 250 ppm or 500 ppm, the following procedure was used. A total of 25 mg or 50 mg, respectively of the NHA sodium salt was weighed using a Mettler balance. The NHA sodium salt complex was placed into a 50 ml sterile screw cap conical tube (#62.547.004; Sarstedt, Newton, N.C.) and dissolved with 40 ml nutritive solution described in Example 2 of U.S. patent application Ser. No. 09/294,499 filed Apr. 20, 1999, hereby incorporated by reference. Under a laminar flow hood, this product was mixed with 27 ml more of sterile nutritional supplement in a 250 ml sterile glass bottle (prepared as reported by M. G. Rojas and J. A. Morales-Ramos, April 2001, “Bait matrix for delivery of chitin synthesis inhibitors to the Formosan subterranean termite [Isoptera: Rhinotermitidae],” J. Econ. Entomol. 94(2) :506-510) hereby incorporated by reference. The bottle was tightly closed with a screw cap and manually shaken for 2 minutes. The mixture was added to 33 g of sterile cellulose as reported by Rojas and Morales-Ramos (2001) supra. The mixture was manually homogenized using a stainless steel spatula. To encase the bait matrix, tubes made of fibrous casing material (#124B; L.E.M. Products, Inc., Miamitown, Ohio) were cut into 150 mm long portions as reported by Rojas and Morales-Ramos (2001) supra. Fifty grams of bait matrix containing NHA sodium salt was compacted into one end of the inlet tube, and the open end and of the inlet tube was closed with a rubber band. The bait casing was placed inside of the foraging box adjacent to a 10 g piece of pine wood, taking care that it was partially covered with sand. Control bait matrix was prepared minus NHA, and presented in the same way as the treatment matrix to Formosan termites taken from three different colonies, with two boxes per locality totaling six boxes of 2500 termites per treatment. (Rojas and Morales-Ramos [2001] supra). All the experimental boxes were maintained under dark conditions at 27±1° C., and 90±2% relative humidity. Observations were done every 72 hours until all the termites died. The time to reach 100% mortality was measured and recorded. Mean comparisons among treatments and control were conducted.
N-hydroxynaphthyalimide (NHA) which is commercially available as pure chemical, is dissolved in distilled water using a sterile container; At concentrations of 500 ppm, NHA is effective as bait active ingredient taking a mean time to kill C. formosanus in 2½ months in lab conditions. […]

Formosan termites = test: Foraging box bait matrix bioassay, NHA sodium salt (Example 1); format: in vivo, Coptotermes formosanus
Procedure: as §1

SMILES: O=C1c2cccc3cccc(c23)C(=O)N1O [NHA, N-hydroxynaphthalimide]
- mean killing times versus 500 ppm (C. formosanus): not significantly different
- acceptability of the bait (Formosan termites; NHA >500 ppm): reduced
- time some termite colonies required to start feeding on the bait (Formosan termites; NHA >500 ppm): more than 8 hours
- time to mortality of a 2,500-worker colony (Formosan termites; depending on the health and age of the colony): about 3 weeks
- NHA concentration at which consumption is almost non existent (Formosan termites; in vivo): above 20,000 ppm
- NHA concentration at which the bait becomes unpalatable (Formosan termites; in vivo): above 10,000 ppm
